Test systems include SF-268 CNS; U251 CNS; K-562 leukemia; OVCAR-5 ovarian; UO-31 renal; MOLT-4 leukemia; RPMI-8226 leukemia; OVCAR-4 ovarian; SF-539 CNS; NCI-H460 lung.
Assay in all cases: growth of human tumour cells (NCI), 48 h

The structures appear in SMILES notation.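 Growth conditions: 96-well plates. Treatment: test compound, 48 hours, 5 concentrations. Analysis: linear interpolation between bracketing concentrations; unreached endpoints set to highest concentration. The concentration for 50% growth inhibition is given as GI50. TGI denotes the concentration required for complete inhibition of growth.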

Take `Cc1nc(NS(=O)(=O)c2ccc(NCN3C(=O)c4ccccc4C3=O)cc2)oc1C`: the GI50 with SF-268 CNS, in the experiment on U251 CNS, in the experiment with K-562 leukemia, in the experiment on OVCAR-5 ovarian, in the experiment with UO-31 renal and in the experiment with MOLT-4 leukemia was greater than 100 µM each time. The GI50 with RPMI-8226 leukemia, with OVCAR-4 ovarian, in the experiment with SF-539 CNS and in the experiment with NCI-H460 lung was greater than 100 µM in each case. For the same molecule, the TGI with SF-268 CNS, with U251 CNS, in the experiment with K-562 leukemia, with OVCAR-5 ovarian, in the experiment on UO-31 renal and with MOLT-4 leukemia was greater than 100 µM in each case. The TGI in the experiment with RPMI-8226 leukemia, in the experiment with OVCAR-4 ovarian, with SF-539 CNS and in the experiment on NCI-H460 lung was greater than 100 µM each time.

Take `CCCCCCCCCCCNC=O`: the TGI in the experiment with SF-268 CNS was greater than 100 µM; in the experiment with U251 CNS, greater than 100 µM; with K-562 leukemia, 86.1 µM; in the experiment with OVCAR-5 ovarian, greater than 100 µM; in the experiment on UO-31 renal, greater than 100 µM; with MOLT-4 leukemia, 60.6 µM. The TGI with RPMI-8226 leukemia is 78.7 µM; in the experiment on OVCAR-4 ovarian, greater than 100 µM; with SF-539 CNS, greater than 100 µM; in the experiment on NCI-H460 lung it was greater than 100 µM.

As for `COc1cc(Cl)c(CC(=O)c2c[nH]c3ccccc23)cc1OC`, the TGI with SF-268 CNS is greater than 100 µM; in the experiment on U251 CNS, 44.4 µM; in the experiment on K-562 leukemia, greater than 100 µM; in the experiment on OVCAR-5 ovarian, greater than 100 µM; with UO-31 renal, greater than 43.3 µM; in the experiment with MOLT-4 leukemia, greater than 100 µM. In addition, the TGI in the experiment with RPMI-8226 leukemia is greater than 100 µM; in the experiment on OVCAR-4 ovarian, greater than 100 µM; in the experiment with SF-539 CNS, 19.4 µM; in the experiment with NCI-H460 lung, greater than 100 µM.

On to `CC(C)[P+](c1ccccc1)(c1ccccc1)c1ccccc1`, for which the GI50 is 5.11 µM in the experiment on SF-268 CNS; 4.11 µM in the experiment on U251 CNS; 2.4 µM with K-562 leukemia; 28.5 µM in the experiment with OVCAR-5 ovarian; greater than 100 µM in the experiment on UO-31 renal; 6.9 µM with MOLT-4 leukemia. Besides, the GI50 in the experiment with RPMI-8226 leukemia was 1.72 µM; in the experiment on OVCAR-4 ovarian it was 3.7 µM; in the experiment on SF-539 CNS, 15.6 µM; with NCI-H460 lung it was 6.92 µM. For the same molecule, the TGI in the experiment with SF-268 CNS, in the experiment with U251 CNS, in the experiment with K-562 leukemia, in the experiment with OVCAR-5 ovarian, with UO-31 renal and with MOLT-4 leukemia was greater than 100 µM each time. The TGI in the experiment with RPMI-8226 leukemia was 23.6 µM; in the experiment on OVCAR-4 ovarian, 94.6 µM; in the experiment on SF-539 CNS it was greater than 100 µM; in the experiment with NCI-H460 lung, greater than 100 µM.

`COc1ccc2nc(C)cc(Sc3nc4ccccc4s3)c2c1`: the GI50 in the experiment on SF-268 CNS is 2.02 µM; in the experiment on U251 CNS, 1 µM; in the experiment with K-562 leukemia, 1.21 µM; in the experiment on OVCAR-5 ovarian, 1.79 µM; in the experiment on UO-31 renal it was 0.385 µM; with MOLT-4 leukemia it was 1.25 µM. Moreover, the GI50 was 0.362 µM with RPMI-8226 leukemia, 0.993 µM in the experiment with OVCAR-4 ovarian, 1.73 µM in the experiment with SF-539 CNS and 1.89 µM in the experiment on NCI-H460 lung. Moreover, the TGI with SF-268 CNS came to 5.51 µM; in the experiment on U251 CNS, 3.06 µM; in the experiment on OVCAR-5 ovarian, 8.19 µM; in the experiment on UO-31 renal it was 5.43 µM; in the experiment with MOLT-4 leukemia, 7.92 µM; in the experiment with RPMI-8226 leukemia it was 2.16 µM. Further, the TGI in the experiment on OVCAR-4 ovarian was greater than 21.2 µM; in the experiment with SF-539 CNS it was 4.04 µM; in the experiment with NCI-H460 lung it was 5.35 µM.

Regarding `CC(C)=Cc1cc(C)c2ccc(C)c3c2c1C(C)=C(O)C3=O`, the GI50 in the experiment with SF-268 CNS was 0.0856 µM; with U251 CNS, 17.9 µM; in the experiment on K-562 leukemia, 10.3 µM; in the experiment with OVCAR-5 ovarian, 18.7 µM; in the experiment on UO-31 renal, 23.5 µM; with MOLT-4 leukemia it was 1.19 µM. The GI50 in the experiment with RPMI-8226 leukemia is 4.38 µM; with OVCAR-4 ovarian, greater than 100 µM; with SF-539 CNS, 32 µM; in the experiment with NCI-H460 lung, 51.2 µM. Also, the TGI was greater than 100 µM in the experiment on SF-268 CNS; 56.4 µM in the experiment on U251 CNS; 24.7 µM in the experiment with K-562 leukemia; 43.1 µM in the experiment with OVCAR-5 ovarian; greater than 100 µM in the experiment on UO-31 renal; 6.05 µM in the experiment on MOLT-4 leukemia. Moreover, the TGI in the experiment with RPMI-8226 leukemia was 24.7 µM; in the experiment on OVCAR-4 ovarian, greater than 100 µM; in the experiment with SF-539 CNS, 79.5 µM; with NCI-H460 lung, greater than 100 µM.

For `NC(N)=NC(N)=Nc1ccc(C(=O)O)cc1`, the TGI with SF-268 CNS, in the experiment with U251 CNS, in the experiment on K-562 leukemia, in the experiment on OVCAR-5 ovarian, with UO-31 renal and with MOLT-4 leukemia was greater than 100 µM in each case. The TGI in the experiment with RPMI-8226 leukemia, with OVCAR-4 ovarian, in the experiment with SF-539 CNS and in the experiment on NCI-H460 lung was greater than 100 µM in each case.

Take `O=C1OCC2=C1C(c1cccc(C(F)(F)F)c1)c1cc3c(cc1N2CCO)OCCO3` (centres undefined): the GI50 with SF-268 CNS was 2.54 µM; with U251 CNS, 1.36 µM; with K-562 leukemia, 0.881 µM; in the experiment with OVCAR-5 ovarian, 1.75 µM; in the experiment with UO-31 renal it was 1.95 µM; with MOLT-4 leukemia, 1.93 µM. Moreover, the GI50 in the experiment on RPMI-8226 leukemia is 1.39 µM; in the experiment with OVCAR-4 ovarian it was 6.41 µM; in the experiment with SF-539 CNS, 0.849 µM; in the experiment with NCI-H460 lung, 1.22 µM. For the same molecule, the TGI with SF-268 CNS, with U251 CNS, with K-562 leukemia, with OVCAR-5 ovarian, in the experiment on UO-31 renal and in the experiment with MOLT-4 leukemia was greater than 33.3 µM each time. Besides, the TGI with RPMI-8226 leukemia is greater than 33.3 µM; in the experiment with OVCAR-4 ovarian, greater than 33.3 µM; with SF-539 CNS, 3.11 µM; in the experiment on NCI-H460 lung it was greater than 33.3 µM.

Turning to `COc1ccc(C2NN=C3c4ccccc4CCC32)cc1` (centres undefined), the GI50 in the experiment with SF-268 CNS was 15.7 µM; with U251 CNS, 5.92 µM; with K-562 leukemia it was 2.87 µM; with OVCAR-5 ovarian, 18.4 µM; with UO-31 renal it was 24.1 µM; in the experiment on MOLT-4 leukemia, 4.04 µM. The GI50 is 5.36 µM with RPMI-8226 leukemia, 3.31 µM with OVCAR-4 ovarian, 6.73 µM with SF-539 CNS and 4.86 µM with NCI-H460 lung. In addition, the TGI in the experiment on SF-268 CNS, in the experiment on U251 CNS, with K-562 leukemia, with OVCAR-5 ovarian, in the experiment on UO-31 renal and in the experiment with MOLT-4 leukemia was greater than 100 µM throughout. The TGI turned out to be 85.4 µM with RPMI-8226 leukemia, 24.6 µM in the experiment on OVCAR-4 ovarian, 28.8 µM with SF-539 CNS and 71.3 µM in the experiment with NCI-H460 lung.

These data come from PubChem BioAssay (NCI).
